pIC50: −log10 of the molar value. Read-outs that look alike come from different tables or passages of the source. Positions of bridges follow the written chain, without caps; N, C: chain ends. Residues, ends and D or L forms follow the SMILES beside them.
Tests used:
[1] = molecular target: T1, rat nAChR α4β2 (Rattus norvegicus, UniProt P09483+P12390); experiment: cell-based
T1 construct: expressed in transfected cells; host or cells: Xenopus oocytes injected with cRNA

[2] = molecular target: T2, rat nAChR α3β2 (Rattus norvegicus, UniProt P04757+P12390); experiment: cell-based; assay type: cell-based
T2 construct: expressed in transfected cells; host or cells: Xenopus oocytes injected with cRNA
T2 sequence (P04757 26-499 limits assumed): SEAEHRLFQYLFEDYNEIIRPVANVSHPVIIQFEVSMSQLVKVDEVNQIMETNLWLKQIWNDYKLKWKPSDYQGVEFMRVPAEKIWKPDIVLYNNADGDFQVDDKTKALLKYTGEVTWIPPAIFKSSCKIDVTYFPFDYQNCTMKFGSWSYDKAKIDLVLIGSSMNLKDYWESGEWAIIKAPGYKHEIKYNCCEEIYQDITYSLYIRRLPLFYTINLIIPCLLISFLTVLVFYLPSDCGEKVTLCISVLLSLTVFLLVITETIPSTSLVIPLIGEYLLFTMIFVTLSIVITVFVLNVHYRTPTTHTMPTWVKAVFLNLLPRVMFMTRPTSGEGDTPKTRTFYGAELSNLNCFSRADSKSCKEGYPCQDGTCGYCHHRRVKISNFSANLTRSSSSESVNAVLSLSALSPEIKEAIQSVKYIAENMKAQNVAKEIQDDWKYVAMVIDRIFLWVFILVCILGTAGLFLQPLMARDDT
T2 sequence (P12390 25-500 limits assumed): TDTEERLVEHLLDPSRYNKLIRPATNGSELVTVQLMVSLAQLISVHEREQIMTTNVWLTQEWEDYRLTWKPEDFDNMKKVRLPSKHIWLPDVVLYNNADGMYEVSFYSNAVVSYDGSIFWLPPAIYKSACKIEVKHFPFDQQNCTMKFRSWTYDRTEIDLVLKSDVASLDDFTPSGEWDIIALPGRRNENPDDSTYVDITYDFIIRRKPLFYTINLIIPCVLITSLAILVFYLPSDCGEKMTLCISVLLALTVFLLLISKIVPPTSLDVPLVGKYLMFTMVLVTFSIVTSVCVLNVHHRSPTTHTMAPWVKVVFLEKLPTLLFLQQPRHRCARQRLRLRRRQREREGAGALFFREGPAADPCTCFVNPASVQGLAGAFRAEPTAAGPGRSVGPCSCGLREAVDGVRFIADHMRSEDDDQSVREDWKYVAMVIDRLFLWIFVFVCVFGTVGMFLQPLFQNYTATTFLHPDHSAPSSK

[3] = molecular target: T3, rat nAChR α7 (Rattus norvegicus, UniProt Q05941); experiment: cell-based
T3 construct: expressed in transfected cells; host or cells: Xenopus oocytes injected with cRNA
T3 sequence (Q05941 23-502 limits assumed): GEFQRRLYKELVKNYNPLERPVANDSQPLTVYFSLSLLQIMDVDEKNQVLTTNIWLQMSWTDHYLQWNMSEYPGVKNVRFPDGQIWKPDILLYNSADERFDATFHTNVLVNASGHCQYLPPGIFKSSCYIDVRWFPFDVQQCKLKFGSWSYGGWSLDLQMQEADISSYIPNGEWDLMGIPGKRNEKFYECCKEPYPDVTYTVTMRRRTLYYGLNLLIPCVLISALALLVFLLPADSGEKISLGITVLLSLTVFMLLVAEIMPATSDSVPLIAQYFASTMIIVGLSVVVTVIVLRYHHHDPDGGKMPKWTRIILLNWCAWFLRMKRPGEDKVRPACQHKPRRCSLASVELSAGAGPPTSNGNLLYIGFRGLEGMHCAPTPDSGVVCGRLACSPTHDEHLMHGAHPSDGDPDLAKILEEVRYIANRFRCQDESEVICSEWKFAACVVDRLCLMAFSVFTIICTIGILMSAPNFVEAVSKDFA

[4] = molecular target: T4, rat nAChR α2β4 (Rattus norvegicus, UniProt P12389+P12392); experiment: cell-based; conditions: IC50 α2β4
T4 construct: expressed in transfected cells; host or cells: Xenopus oocytes injected with cRNA
T4 sequence (P12389 28-511 limits assumed): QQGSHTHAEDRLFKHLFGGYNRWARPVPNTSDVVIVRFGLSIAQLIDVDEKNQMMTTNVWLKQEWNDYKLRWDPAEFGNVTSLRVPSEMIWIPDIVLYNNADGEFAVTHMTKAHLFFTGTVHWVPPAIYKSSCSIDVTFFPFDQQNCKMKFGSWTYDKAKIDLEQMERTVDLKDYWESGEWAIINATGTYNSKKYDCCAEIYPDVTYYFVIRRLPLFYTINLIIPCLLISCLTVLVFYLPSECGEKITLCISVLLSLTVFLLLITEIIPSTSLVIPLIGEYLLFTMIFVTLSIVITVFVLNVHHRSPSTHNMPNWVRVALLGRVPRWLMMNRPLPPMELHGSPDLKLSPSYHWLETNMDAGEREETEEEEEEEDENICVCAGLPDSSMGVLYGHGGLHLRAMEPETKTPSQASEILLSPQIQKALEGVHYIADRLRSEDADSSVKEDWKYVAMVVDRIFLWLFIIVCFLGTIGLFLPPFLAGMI
T4 sequence (P12392 21-495 limits assumed): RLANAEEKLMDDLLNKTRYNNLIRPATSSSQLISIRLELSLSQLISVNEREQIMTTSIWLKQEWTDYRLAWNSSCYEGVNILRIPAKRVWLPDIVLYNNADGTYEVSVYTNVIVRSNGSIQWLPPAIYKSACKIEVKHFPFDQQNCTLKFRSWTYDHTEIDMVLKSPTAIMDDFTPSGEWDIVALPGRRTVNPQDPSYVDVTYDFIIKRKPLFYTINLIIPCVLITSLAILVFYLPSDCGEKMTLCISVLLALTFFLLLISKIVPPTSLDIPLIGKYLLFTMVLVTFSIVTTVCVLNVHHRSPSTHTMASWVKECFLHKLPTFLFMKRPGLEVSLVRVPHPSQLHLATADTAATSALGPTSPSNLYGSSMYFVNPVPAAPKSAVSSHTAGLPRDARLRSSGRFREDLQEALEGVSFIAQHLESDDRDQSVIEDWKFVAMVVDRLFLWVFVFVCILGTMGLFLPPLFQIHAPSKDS

[5] = molecular target: T5, rat nAChR α4β4 (Rattus norvegicus, UniProt P09483+P12392); experiment: cell-based
T5 construct: expressed in transfected cells; host or cells: Xenopus oocytes injected with cRNA
T5 sequence (P09483 31-630 limits assumed): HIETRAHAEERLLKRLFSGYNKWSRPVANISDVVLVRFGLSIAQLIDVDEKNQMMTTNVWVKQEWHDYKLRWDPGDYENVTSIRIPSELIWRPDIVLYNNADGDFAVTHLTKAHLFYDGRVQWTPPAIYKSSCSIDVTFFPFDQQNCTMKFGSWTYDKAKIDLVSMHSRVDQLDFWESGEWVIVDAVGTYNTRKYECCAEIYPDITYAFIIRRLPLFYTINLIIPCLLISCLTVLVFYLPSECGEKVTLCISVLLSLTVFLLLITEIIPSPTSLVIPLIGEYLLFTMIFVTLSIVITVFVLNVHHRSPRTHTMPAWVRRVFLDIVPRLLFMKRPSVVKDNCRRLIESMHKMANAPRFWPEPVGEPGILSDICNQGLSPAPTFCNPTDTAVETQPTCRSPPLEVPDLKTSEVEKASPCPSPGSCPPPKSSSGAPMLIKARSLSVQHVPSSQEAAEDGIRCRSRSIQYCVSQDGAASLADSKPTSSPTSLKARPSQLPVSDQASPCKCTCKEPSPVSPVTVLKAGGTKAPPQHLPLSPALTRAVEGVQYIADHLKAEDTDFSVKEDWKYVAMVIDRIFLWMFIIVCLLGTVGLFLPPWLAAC
T5 sequence (P12392 21-495 limits assumed): as the sequence (P12392 21-495 limits assumed) above

[6] = molecular target: T6, rat nAChR α3β4 (Rattus norvegicus, UniProt P04757+P12392); experiment: cell-based
T6 construct: expressed in transfected cells; host or cells: Xenopus oocytes injected with cRNA
T6 sequence (P04757 26-499 limits assumed): as the sequence (P04757 26-499 limits assumed) above
T6 sequence (P12392 21-495 limits assumed): as the sequence (P12392 21-495 limits assumed) above

[7] = molecular target: T7, rat nAChR α9α10 (Rattus norvegicus, UniProt P43144+Q9JLB5); experiment: cell-based
T7 construct: expressed in transfected cells; host or cells: Xenopus oocytes injected with cRNA
T7 sequence (P43144 26-479 limits assumed): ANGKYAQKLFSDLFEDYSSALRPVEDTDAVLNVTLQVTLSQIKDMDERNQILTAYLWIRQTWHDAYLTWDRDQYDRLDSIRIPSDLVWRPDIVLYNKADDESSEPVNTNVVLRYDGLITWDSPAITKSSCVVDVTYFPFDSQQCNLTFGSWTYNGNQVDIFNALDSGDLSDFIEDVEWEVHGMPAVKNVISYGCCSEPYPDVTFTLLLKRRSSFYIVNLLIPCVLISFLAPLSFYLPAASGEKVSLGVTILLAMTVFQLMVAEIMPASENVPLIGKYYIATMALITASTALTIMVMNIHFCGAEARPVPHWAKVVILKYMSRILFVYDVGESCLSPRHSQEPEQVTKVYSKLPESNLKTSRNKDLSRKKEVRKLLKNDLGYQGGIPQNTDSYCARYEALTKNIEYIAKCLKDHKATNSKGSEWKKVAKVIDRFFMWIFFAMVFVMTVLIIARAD
T7 sequence (Q9JLB5 25-447 limits assumed): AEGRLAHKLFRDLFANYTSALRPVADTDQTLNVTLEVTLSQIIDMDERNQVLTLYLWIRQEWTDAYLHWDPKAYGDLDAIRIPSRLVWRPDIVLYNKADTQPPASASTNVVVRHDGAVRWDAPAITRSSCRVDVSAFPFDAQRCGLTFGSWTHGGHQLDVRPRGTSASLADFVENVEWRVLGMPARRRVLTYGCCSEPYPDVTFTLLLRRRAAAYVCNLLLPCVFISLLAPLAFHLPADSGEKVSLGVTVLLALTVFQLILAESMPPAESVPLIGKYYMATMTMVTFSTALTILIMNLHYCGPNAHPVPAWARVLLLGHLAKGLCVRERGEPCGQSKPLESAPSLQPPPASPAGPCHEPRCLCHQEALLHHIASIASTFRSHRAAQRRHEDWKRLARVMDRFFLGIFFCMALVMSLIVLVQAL

[8] = molecular target: T8, rat nAChR α2β2 (Rattus norvegicus, UniProt P12389+P12390); experiment: cell-based
T8 construct: expressed in transfected cells; host or cells: Xenopus oocytes injected with cRNA
T8 sequence (P12389 28-511 limits assumed): as the sequence (P12389 28-511 limits assumed) above
T8 sequence (P12390 25-500 limits assumed): as the sequence (P12390 25-500 limits assumed) above

[9] = molecular target: T9, rat nAChR α6/α3β2β3 (Rattus norvegicus, UniProt P04757+P12390+P12391+P43143); experiment: cell-based
T9 construct: expressed in transfected cells; host or cells: Xenopus oocytes injected with cRNA

[10] = molecular target: T2, rat nAChR α3β2; experiment: cell-based; assay type: cell-based; remark: listed apart in the source
[11] = molecular target: T2, rat nAChR α3β2; conditions: cited from earlier work

T1 sequence (P09483 31-630 limits assumed): as the sequence (P09483 31-630 limits assumed) above
T1 sequence (P12390 25-500 limits assumed): as the sequence (P12390 25-500 limits assumed) above

Row | Compound | pIC50 [1] | pIC50 [2] | pIC50 [3] | pIC50 [4] | pIC50 [5] | pIC50 [6] | pIC50 [7] | pIC50 [8] | pIC50 [9] | kon [10] | koff ([10]; SEM) | pIC50 [11]
1 | CC(C)C[C@@H]1NC(=O)[C@H](CCC(=O)O)NC(=O)[C@@H]2CCCN2C(=O)[C@H](CC(N)=O)NC(=O)[C@H](CO)NC(=O)[C@H](C(C)C)NC(=O)[C@H](Cc2c[nH]cn2)NC(=O)[C@@H]2CSSC[C@H](NC(=O)[C@H](CCC(=O)O)NC(=O)[C@@H]3CCCN3)C(=O)N[C@@H](CSSC[C@@H](C(N)=O)NC1=O)C(=O)N[C@@H]([C@@H](C)O)C(=O)N[C@@H](Cc1c[nH]cn1)C(=O)N1CCC[C@H]1C(=O)N[C@@H](C)C(=O)N2 [Mr1.7[H13N]] (H-PECCTHPACHVSNPELC-NH2; disulfide 3-9, 4-17) | < 5.00 | 6.27 | 5.62 | < 5.00 | < 5.00 | < 5.00 | 5.74 | < 5.00 | – | – | – | –
2 | CC(C)C[C@@H]1NC(=O)[C@H](CCC(=O)O)NC(=O)[C@@H]2CCCN2C(=O)[C@H](Cc2c[nH]cn2)NC(=O)[C@H](CO)NC(=O)[C@H](C(C)C)NC(=O)[C@H](Cc2c[nH]cn2)NC(=O)[C@@H]2CSSC[C@H](NC(=O)[C@H](CCC(=O)O)NC(=O)[C@@H]3CCCN3)C(=O)N[C@@H](CSSC[C@@H](C(N)=O)NC1=O)C(=O)N[C@@H]([C@@H](C)O)C(=O)N[C@@H](Cc1c[nH]cn1)C(=O)N1CCC[C@H]1C(=O)N[C@@H](C)C(=O)N2 [Mr1.7] (H-PECCTHPACHVSHPELC-NH2; disulfide 3-9, 4-17) | < 5.00 | – | < 5.00 | < 5.00 | < 5.00 | < 5.00 | 6.73 | < 5.00 | 6.55 | 91300 M⁻¹ s⁻¹ | 0.00312 s⁻¹ | –
3 | Vc1.1 | – | – | – | – | – | – | – | – | – | – | – | 5.26

— publication PMC4483627 (Marine Drugs, 2015)
